Measurements reported in patent US12054466B2, “Compounds for the treatment of clostridium difficile infection” (University of Notre Dame du Lac, priority 2016, dated 2024).

tested on: C. difficile; assay: MIC against C. difficile (strain not named; 14 strains overall); assay type: cell-based, Clostridium difficile; conditions: strain not named

**Q.** With Oc1ccc(-c2nc(-c3ccc(OC4CCCC=C4Br)cc3)no2)cc1 (stereo not drawn) [ix] as the compound, how does the C. difficile MIC read?
**A.** 2 µg/mL

**Q.** With Oc1ccc(-c2nc(-c3ccc(OC4CC4)cc3)no2)cc1 [vii] as the compound, how does the C. difficile MIC read?
**A.** 8 µg/mL

**Q.** Which C. difficile MIC does the source give for Oc1ccc(-c2nc(-c3ccc(OC4CCC=C4Br)cc3)no2)cc1 (stereo not drawn) [xi] here?
**A.** 2 µg/mL

**Q.** Which C. difficile MIC does the source give for Oc1ccc(-c2nc(-c3ccc(OC(F)(F)F)cc3)no2)cc1 [xvii] here?
**A.** 4 µg/mL

**Q.** Which C. difficile MIC does the source give for NCc1ccc(-c2nc(-c3ccc(Oc4ccc(C(F)(F)F)cc4)cc3)no2)cc1 [xxi] here?
**A.** 4 µg/mL

**Q.** With Oc1ccc(-c2nc(-c3ccc(OC4CCCC4)cc3)no2)cc1 [xxii] as the compound, how does the C. difficile MIC read?
**A.** 2 µg/mL

tested on: C. difficile; assay: not given; conditions: […]; cited from earlier work

**Q.** Which “Inhibition of toxin production” value does the source give for CCCCCc1ccc(/C(C)=C/C(=O)N[C@H](Cc2c[nH]c3ccccc23)C(=O)N[C@H](CC(N)=O)C(=O)N[C@@H](CC(=O)O)C(=O)N[C@@H]2C(=O)NCC(=O)N[C@@H](CCCN)C(=O)N[C@@H](CC(=O)O)C(=O)N[C@H](C)C(=O)N[C@@H](CC(=O)O)C(=O)NCC(=O)N[C@H](CO)C(=O)N[C@@H]([C@H](C)CC(=O)O)C(=O)N[C@@H](CC(=O)c3ccccc3N)C(=O)O[C@@H]2C)cc1 [surotomycin] here?
**A.** nor inhibits toxin production

tested on: C. difficile ATCC43255; assay: MIC, broth microdilution; assay type: cell-based; conditions: Clostridioides difficile, ATCC43255; FIG. 3 legend; C. difficile; read-out: MIC of positive controls of the macromolecular synthesis assays

**Q.** With O=C(O)c1cn(C2CC2)c2cc(N3CCNCC3)c(F)cc2c1=O [ciprofloxacin] as the compound, how does the MIC read?
**A.** 8 µg/mL

**Q.** Which MIC does the source give for CC(=O)NC[C@H]1CN(c2ccc(N3CCOCC3)c(F)c2)C(=O)O1 [linezolid] here?
**A.** 2 µg/mL
